According to patent US20020090619A1, “Methods for identifying mitochondrial divalent cation transporters” (priority 2000, published 2002):

Experiment: ETH 129 mediated cation transport into Quin-2 loaded POPC vesicles
Format: biochemical
Parameters: slope of log Ca2+ transport rate vs ΔΨ: unit not given here
Conditions: for SlopeETH 129: log rate vs log ETH 129; for SlopeMe: log rate vs log cation concentration, FIG. 8B
Method: Unilamellar vesicles loaded with Quin-2 were prepared from 1-palmitoyl-2-oleoyl-sn-glycerophosphatidylcholine (POPC) by freeze-thaw extrusion (Erdahl et al., 1994 Biophys. J. 66:1678; Erdahl et al., 1995 Biophys. J. 69:2350). The formation medium contained 5 mM Quin-2 (K+), 10 mM Hepes (K+), pH 7.00, and 100 mM KCl. A high internal K+ concentration was sought to allow the generation of membrane potentials of varying magnitude (see below). The preparations obtained were applied to Sephadex™ G-50 mini-columns (Pharmacia, Piscataway N.J.) and eluted by low speed centrifugation (Fry et al., 1978 Anal. Biochem. 90:809), to replace the external medium with a 10 mM Hepes buffer (Na+), pH 7.00 (Erdahl et al., 1994 Biophys. J. 66:1678; Erdahl et al., 1995 Biophys. J. 69:2350). The nominal concentration of POPC in final preparations was determined as lipid phosphorus (Bartlett, 1959 J Biol. Chem. 234:466) and was near 80 mM. The average diameter of these vesicles was 71 nm as determined by freeze-fracture electron microscopy (Chapman et al., 1990 Chem. Phys. Lipids 55:73). They contained entrapped K+ at approximately 125 mM, as determined by atomic absorption spectroscopy, and Quin-2 at approximately 6 mM. The latter value was determined by titrating lysed vesicles with a standard solution of CaCl2 and was about one third of the expected value (Erdahl et al., 1995 Bipohys. J. 69:3250). The high solute level in the formation medium reduced the efficiency of Quin-2 entrapment by reducing the effectiveness of a freeze-thaw driven solute concentrating mechanism that normally elevates the internal concentrations of solutes, relative to the external medium (Chapman et al., 1990 Chem. Phys. Lipids 55:73; Chapman et al., 1990 Chem. Phys. Lipids 60:201).
POPC vesicles containing Quin-2 were utilized at a nominal phospholipid concentration of 1.0 mM, and at 25° C. The external medium contained polyvalent cation salts as described below, 100 mM NaCl, or mixtures of NaCl and KCl totaling […], and 10 mM Hepes, pH 7.00, unless otherwise noted. The medium pH was adjusted with NaOH that had been passed over Chelex 100 columns to remove contaminating cations (Erdahl et al., 1994 Biophys. J. 66:1678). In most cases an inside negative membrane electrical potential was present during the experiments. This was generated by the presence of 0.5 μM valinomycin (Val), which transports K+ out of the vesicles electrogenically (Erdahl et al., 1994 Biophys. J. 66:1678). The magnitude of the potential was controlled by varying the concentration ratio of Na+ to K+ in the external medium. A TPP+electrode was used to measure the potential (Broekemeier et al, 1998 Biochem. 37:13059), and thereby to verify that the calculated values were obtained. For these purposes the incubation medium contained 2.0 μM TPP.Cl and the entrapped volume was taken to be 2.02 μl/ml at a nominal POPC concentration of 1.0 mM (Chapman et al., 1990 Chem. Phys. Lipids 55:73).
Val was omitted when an imposed membrane potential was not desired, or in some cases 5 μM of the protonophore carbonyl cyanide m-chlorophenylhydrazone (CCP) was present instead of Val.
The transport of polyvalent cations was monitored by difference absorbance measurements which detected formation of the Quin-2:cation complex within the vesicle lumen. An Aminco DW2a spectrophotometer operated in the dual wavelength mode was employed. In addition, an Oriel No. 59800 band pass filter was used between the cuvette and the beam scrambler-photomultiplier assembly to prevent detection of the fluorescent light emitted by Quin-2. The sample wavelength for all cations was 264 nm. The reference wavelengths were at an isosbestic point in the Quin-2/Quin-2:cation complex difference spectrum of interest. These wavelengths varied slightly from cation to cation, as previously described (Erdahl et al., 1996 Biochem. 35:13817). […]

[1] = 5.0 μM ETH 129, 30 μM CaCl2, Val, FIG. 3B

O=C(COCC(=O)N(C1CCCCC1)C1CCCCC1)N(C1CCCCC1)C1CCCCC1 [ETH 129]
slope of log rate vs. log Ca2+ concentration (5.0 μM ETH 129, 0.5 μM Val, FIG. 7B): 0.7 | Ca2+ transport rate at zero potential (extrapolated) [1]: 0.41 nM/s | slope of log Ca2+ transport rate vs ΔΨ [1]: 0.12 | Ca2+ transport rate when CCP was used to eliminate an opposing potential (5.0 μM ETH 129, 100 μM CaCl2, 5.0 μM CCP, FIG. 2C): 0.88 nM/s | Selectivity, Ca/Me (10^−2.0 M Cations, Me = Ca^2+): ≡1.0 | Selectivity, Ca/Me (10^−2.0 M Cations, Me = Co^2+): 53 | Selectivity, Ca/Me (10^−2.0 M Cations, Me = La^3+): 5.1 | Selectivity, Ca/Me (10^−2.0 M Cations, Me = Mn^2+): 59 | Selectivity, Ca/Me (10^−2.0 M Cations, Me = Ni^2+): 55 | Selectivity, Ca/Me (10^−2.0 M Cations, Me = Sr^2+): 2.8 | Selectivity, Ca/Me (10^−2.0 M Cations, Me = Zn^2+): 2.3 | Selectivity, Ca/Me (10^−3 5 M Cations, Me = Ca^2+): ≡1.0 | Selectivity, Ca/Me (10^−3 5 M Cations, Me = Co^2+): 9.9 | Selectivity, Ca/Me (10^−3 5 M Cations, Me = La^3+): 0.44 | Selectivity, Ca/Me (10^−3 5 M Cations, Me = Mn^2+): 8.9 | Selectivity, Ca/Me (10^−3 5 M Cations, Me = Ni^2+): 8.6 | Selectivity, Ca/Me (10^−3 5 M Cations, Me = Sr^2+): 2.9 | Selectivity, Ca/Me (10^−3 5 M Cations, Me = Zn^2+): 2.6 | Selectivity, Ca/Me (10^−5.0 M Cations, Me = Ca^2+): ≡1.0 | Selectivity, Ca/Me (10^−5.0 M Cations, Me = Co^2+): 1.6 | Selectivity, Ca/Me (10^−5.0 M Cations, Me = La^3+): 0.14 | Selectivity, Ca/Me (10^−5.0 M Cations, Me = Mn^2+): 1.1 | Selectivity, Ca/Me (10^−5.0 M Cations, Me = Ni^2+): 1.1 | Selectivity, Ca/Me (10^−5.0 M Cations, Me = Sr^2+): 1.0 | Selectivity, Ca/Me (10^−5.0 M Cations, Me = Zn^2+): 0.9 | slope of log rate vs. log ionophore concentration (Ca2+ 30 μM, Val, FIG. 6B): 2.8 | selectivity sequence among the divalent cations (FIG. 8): Ca^2+>Zn^2+≈Sr^2+>Co2+≈Ni^2+≈Mn^2+ | acceleration of Ca2+ transport per 59 mV increase in ΔΨ (equivalent of the slope value, FIG. 3B): 3.3 fold | SlopeETH 129 (cation Ca^2+ 1.0 mM): 1.5 | SlopeETH 129 (cation Co^2+ 1.0 mM): 0.55 | SlopeETH 129 (cation Mn^2+ 1.0 mM): 0.85 | SlopeETH 129 (cation Ni^2+ 1.0 mM): 0.78 | SlopeETH 129 (cation Sr^2+ 1.0 mM): 2.0 | SlopeMe (cation Ca^2+): 0.65 | SlopeMe (cation Co^2+): 0.11 | SlopeMe (cation La^3+): nonlin | SlopeMe (cation Mn^2+): 0.04 | SlopeMe (cation Ni^2+): 0.05 | SlopeMe (cation Sr^2+): 0.57 | SlopeMe (cation Zn^2+): 0.58 | effect of ETH 129 alone on rate of Ca2+ permeation (no Val or CCP, FIG. 2A): only a modest effect
